We go through 2 compounds from ChEMBL document CHEMBL1151802, “Calyciphyllines N-P, alkaloids from Daphniphyllum calycinum” (J Nat Prod, 2009).

What all share (assay type): functional, cell-based
One test concerns P388. The test is described as follows: Cytotoxicity against mouse P388 cells.
A further test relates to L1210. The test is described as follows: Cytotoxicity against mouse L1210 cells.
In a further test the test system is KB. Briefly: Cytotoxicity against human KB cells.

Where only a bound is given, the exact number is not on record here.

For orientation: IC50 means the midpoint of a concentration-inhibition curve. Read a low IC50 as inhibition by little substance. Take `COC(=O)CC[C@@]12[C@@H]3NC4C([C@@H](O)C[C@@]45CCC[C@H]51)[C@]2(C)CC[C@@H]3C(C)C` [CALYCIPHYLLINE O]: the half-maximal inhibitory concentration (IC50) in the test with P388 is above 55 µg/mL; with L1210, above 5 µg/mL; with KB, above 5 µg/mL.
For `COC(=O)[C@@H]1C[C@]23C4=NC[C@@H](C)[C@]45CC[C@@]2(C)[C@H](CCC2=C3[C@@H]1CC2)[C@H]5O` [CALYCIPHYLLINE N], the results for the concentration for half-maximal inhibition (IC50) in the test with P388, in the test with L1210 and in the test on KB were above 55 µg/mL, above 5 µg/mL and above 5 µg/mL, respectively.
